According to patent publication US6511961B1, “Cyclic peptides and medicinal use thereof” (Toray Industries, Inc., priority 1997, dated 2003):
Like-named read-outs stand apart in the source and are kept apart here.

Conditions: 20-membered ring
[1] = disulfide bond, K3[Fe(CN)6]/NH3 pH 7.5-8, water

CC[C@H](C)[C@@H]1NC(=O)[C@@H](N)CSSC[C@@H](C(=O)O)NC(=O)[C@H](CC(C)C)NC(=O)[C@@H](c2ccccc2)NC(=O)[C@H](CC(=O)O)NC1=O [C*IDdPhgLC*]
ring closure, yield after HPLC (from H-Cys(Acm)-Ile-Asp-dPhg-Leu-Cys(Acm)-OH, disulfide bond, AgOTf/anisole/TFA, then DMSO/HCl, 50% DMSO-1N HCl, 2 steps): 8%

CC[C@H](C)[C@@H]1NC(=O)CCSSC[C@@H](C(=O)O)NC(=O)[C@H](CC(C)C)NC(=O)[C@H](Cc2c[nH]cn2)NC(=O)[C@H](CC(=O)O)NC1=O [Mpr*IDHLC*]
ring closure, yield after HPLC (from Mpr(Acm)-Ile-Asp-His-Leu-Cys(Acm)-OH, disulfide bond, AgOTf/anisole/TFA, then DMSO/HCl, 50% DMSO-1N HCl, 2 steps): 33%

CC(C)C[C@@H]1NC(=O)[C@@H](c2ccccc2)NC(=O)[C@H](CCS(C)(=O)=O)NC(=O)[C@H](C2CCCCC2)NC(=O)[C@@H](N)CSSC[C@H](C(=O)O)NC1=O [C*ChgMet(O2)dPhgLdC*]
ring closure, yield after HPLC (from H-Cys(Acm)-Chg-Met(O2)-dPhg-Leu-dCys(Acm)-OH, disulfide bond, AgOTf/anisole/TFA, then DMSO/HCl, 50% DMSO-1N HCl, 2 steps): 40%

CC[C@H](C)[C@@H]1NC(=O)[C@H](Cc2c[nH]cn2)NC(=O)[C@H](CC(=O)O)NC(=O)[C@H]([C@@H](C)CC)NC(=O)[C@@H](N)CSSC[C@@H](C(=O)O)NC1=O [C*IDHIC*]
ring closure, yield after HPLC (from H-Cys(Acm)-Ile-Asp-His-Ile-Cys(Acm)-OH, disulfide bond, AgOTf/anisole/TFA, then DMSO/HCl, 50% DMSO-1N HCl, 2 steps): 50%

CC(C)C[C@@H]1NC(=O)[C@@H](Cc2c[nH]cn2)NC(=O)[C@H](CCS(C)(=O)=O)NC(=O)[C@H](C2CCCCC2)NC(=O)[C@@H](N)CSSC[C@@H](C(=O)O)NC1=O [C*ChgMet(O2)dHLC*]
ring closure, yield after HPLC (from H-Cys(Acm)-Chg-Met(O2)-dHis-Leu-Cys(Acm)-OH, disulfide bond, AgOTf/anisole/TFA, then DMSO/HCl, 50% DMSO-1N HCl, 2 steps): 45%

CC[C@H](C)[C@@H]1NC(=O)[C@@H](N)CSSC[C@@H](C(=O)O)NC(=O)[C@H](CC(C)C)NC(=O)[C@H](Cc2ccc3ccccc3c2)NC(=O)[C@H](CC(=O)O)NC1=O [C*IDAla(2-Naph)LC*]
ring closure, yield after HPLC (from H-Cys(Acm)-Ile-Asp-Ala(2-Naph)-Leu-Cys(Acm)-OH, disulfide bond, AgOTf/anisole/TFA, then DMSO/HCl, 50% DMSO-1N HCl, 2 steps): 38%

CC[C@H](C)[C@@H]1NC(=O)[C@@H](N)C(C)(C)SSC[C@@H](C(=O)O)NC(=O)[C@H](CC(C)C)NC(=O)[C@H](Cc2c[nH]cn2)NC(=O)[C@H](CC(=O)O)NC1=O [Pen*IDHLC*]
ring closure, yield after HPLC (from H-Pen(Acm)-Ile-Asp-His-Leu-Cys(Acm)-OH, disulfide bond, AgOTf/anisole/TFA, then DMSO/HCl, 50% DMSO-1N HCl, 2 steps): 30%

CC[C@H](C)[C@@H]1NC(=O)[C@H](N)CSSC[C@@H](C(=O)O)NC(=O)[C@H](CC(C)C)NC(=O)[C@H](Cc2c[nH]cn2)NC(=O)[C@H](CC(=O)O)NC1=O [dC*IDHLC*]
ring closure, yield after HPLC (from H-dCys(Acm)-Ile-Asp-His-Leu-Cys(Acm)-OH, disulfide bond, AgOTf/anisole/TFA, then DMSO/HCl, 50% DMSO-1N HCl, 2 steps): 39%

CC[C@H](C)[C@@H]1NC(=O)[C@@H](N)CSSC[C@@H](C(=O)OC)NC(=O)[C@H](CC(C)C)NC(=O)[C@H](Cc2c[nH]cn2)NC(=O)[C@H](CC(=O)OC)NC1=O [C*ID(OMe)HLC—OMe*]
ring closure, yield after HPLC (from H-Cys(Acm)-Ile-Asp(OMe)-His-Leu-Cys(Acm)-OMe, disulfide bond, AgOTf/anisole/TFA, then DMSO/HCl, 50% DMSO-1N HCl, 2 steps): 34%

CC[C@H](C)[C@@H]1NC(=O)[C@@H](N)CSSC[C@@H](C(=O)O)NC(=O)[C@H](CC(C)C)NC(=O)[C@H](CCc2ccccc2)NC(=O)[C@H](CC(=O)O)NC1=O [C*IDHphLC*]
ring closure, yield after HPLC (from H-Cys(Acm)-Ile-Asp-Hph-Leu-Cys(Acm)-OH, disulfide bond, AgOTf/anisole/TFA, then DMSO/HCl, 50% DMSO-1N HCl, 2 steps): 38%

CC[C@H](C)[C@@H]1NC(=O)[C@@H](N)CSSC[C@@H](C(=O)O)NC(=O)[C@H](CC(C)C)NC(=O)[C@@H](Cc2c[nH]cn2)NC(=O)[C@H](CC(=O)O)NC1=O [C*IDdHLC*]
ring closure, yield after HPLC (from H-Cys(Acm)-Ile-Asp-dHis-Leu-Cys(Acm)-OH, disulfide bond, AgOTf/anisole/TFA, then DMSO/HCl, 50% DMSO-1N HCl, 2 steps): 74%

CC[C@H](C)[C@@H]1NC(=O)[C@@H](N)CSSC[C@@H](C(N)=O)NC(=O)[C@H](CC(C)C)NC(=O)[C@H](Cc2c[nH]cn2)NC(=O)[C@H](CC(N)=O)NC1=O [C*INHLC*—NH2]
ring closure, yield after HPLC (from H-Cys(Acm)-Ile-Asn-His-Leu-Cys(Acm)-NH2, disulfide bond, AgOTf/anisole/TFA, then DMSO/HCl, 50% DMSO-1N HCl, 2 steps): 18%

CC(C)C[C@@H]1NC(=O)[C@@H](Cc2ccc(O)cc2)NC(=O)[C@H](CCS(C)(=O)=O)NC(=O)[C@H](C2CCCCC2)NC(=O)[C@@H](N)CSSC[C@@H](C(=O)O)NC1=O [C*ChgMet(O2)dYLC*]
ring closure, yield after HPLC (from H-Cys(Acm)-Chg-Met(O2)-dTyr-Leu-Cys(Acm)-OH, disulfide bond, AgOTf/anisole/TFA, then DMSO/HCl, 50% DMSO-1N HCl, 2 steps): 37%

C*IDSLC*
ring closure, yield after HPLC [1]: 62%

CC(C)C[C@@H]1NC(=O)[C@H](Cc2c[nH]cn2)NC(=O)[C@H](CC(=O)O)NC(=O)[C@H](C)NC(=O)[C@@H](N)CSSC[C@@H](C(=O)O)NC1=O [C*ADHLC*]
ring closure, yield after HPLC (from H-Cys(Acm)-Ala-Asp-His-Leu-Cys(Acm)-OH, disulfide bond, AgOTf/anisole/TFA, then DMSO/HCl, 50% DMSO-1N HCl, 2 steps): 59%

CC[C@H](C)[C@@H]1NC(=O)[C@@H](N)CSSC[C@@H](C(=O)O)NC(=O)[C@H](CC(C)C)NC(=O)[C@H](Cc2c[nH]cn2)NC(=O)[C@H](CCS(C)(=O)=O)NC1=O [C*IMet(O2)HLC*]
ring closure, yield after HPLC (from H-Cys(Acm)-Ile-Met(O2)-His-Leu-Cys(Acm)-OH, disulfide bond, AgOTf/anisole/TFA, then DMSO/HCl, 50% DMSO-1N HCl, 2 steps): 68%

CC(C)C[C@@H]1NC(=O)[C@H](c2ccccc2)NC(=O)[C@H](CCS(C)(=O)=O)NC(=O)[C@H](C2CCCCC2)NC(=O)[C@@H](N)CSSC[C@@H](C(=O)O)NC1=O [C*ChgMet(O2)PhgLC*]
ring closure, yield after HPLC (from H-Cys(Acm)-Chg-Met(O2)-Phg-Leu-Cys(Acm)-OH, disulfide bond, AgOTf/anisole/TFA, then DMSO/HCl, 50% DMSO-1N HCl, 2 steps): 4%

C*IDTLC*
ring closure, yield after HPLC [1]: 70%

CC[C@H](C)[C@@H]1NC(=O)[C@@H](N)CSSC[C@@H](C(=O)O)NC(=O)[C@H](CC(C)C)NC(=O)[C@H](Cc2c[nH]cn2)NC(=O)[C@H](CCC(=O)O)NC1=O [C*IEHLC*]
ring closure, yield after HPLC (from H-Cys(Acm)-Ile-Glu-His-Leu-Cys(Acm)-OH, disulfide bond, AgOTf/anisole/TFA, then DMSO/HCl, 50% DMSO-1N HCl, 2 steps): 71%

CC(C)C[C@@H]1NC(=O)[C@@H](c2ccccc2)NC(=O)[C@H](CCS(C)(=O)=O)NC(=O)[C@H](C2CCCCC2)NC(=O)[C@@H](N)CSSC[C@@H](C(=O)O)NC1=O [C*ChgMet(O2)dPhgLC*]
ring closure, yield after HPLC (from H-Cys(Acm)-Chg-Met(O2)-dPhg-Leu-Cys(Acm)-OH, disulfide bond, AgOTf/anisole/TFA, then DMSO/HCl, 50% DMSO-1N HCl, 2 steps): 8%

CC[C@@H](C)[C@H]1NC(=O)[C@@H](N)CSSC[C@@H](C(=O)O)NC(=O)[C@H](CC(C)C)NC(=O)[C@H](Cc2c[nH]cn2)NC(=O)[C@H](CC(=O)O)NC1=O [C*dIDHLC*]
ring closure, yield after HPLC (from H-Cys(Acm)-dIle-Asp-His-Leu-Cys(Acm)-OH, disulfide bond, AgOTf/anisole/TFA, then DMSO/HCl, 50% DMSO-1N HCl, 2 steps): 72%

CC(C)C[C@@H]1NC(=O)[C@H](Cc2c[nH]cn2)NC(=O)[C@H](CCS(C)(=O)=O)NC(=O)[C@H](C2CCCCC2)NC(=O)[C@@H](N)CSSC[C@@H](C(=O)O)NC1=O [C*ChgMet(O2)HLC*]
ring closure, yield after HPLC (from H-Cys(Acm)-Chg-Met(O2)-His-Leu-Cys(Acm)-OH, disulfide bond, AgOTf/anisole/TFA, then DMSO/HCl, 50% DMSO-1N HCl, 2 steps): 41%

D(CO—)ChgMet(O2)dPhgLDpr(NH—)
ring closure, yield after HPLC (amide bond, with chain assembly): 10%

CC[C@H](C)[C@@H]1NC(=O)[C@H](c2ccccc2)NC(=O)[C@H](CCS(C)(=O)=O)NC(=O)[C@H](C2CCCCC2)NC(=O)[C@@H](N)CSSC[C@@H](C(=O)O)NC1=O [C*ChgMet(O2)PhgIC*]
ring closure, yield after HPLC (from H-Cys(Acm)-Chg-Met(O2)-Phg-Ile-Cys(Acm)-OH, disulfide bond, AgOTf/anisole/TFA, then DMSO/HCl, 50% DMSO-1N HCl, 2 steps): 3%

CC[C@H](C)[C@@H]1NC(=O)[C@@H](N)CSSC[C@@H](C(=O)O)NC(=O)[C@H](CC(C)C)NC(=O)[C@H](Cc2c[nH]cn2)NC(=O)[C@H](Cc2ccc(O)cc2)NC1=O [C*IYHLC*]
ring closure, yield after HPLC (from H-Cys(Acm)-Ile-Tyr-His-Leu-Cys(Acm)-OH, disulfide bond, AgOTf/anisole/TFA, then DMSO/HCl, 50% DMSO-1N HCl, 2 steps): 52%

CC(C)C[C@@H]1NC(=O)[C@@H](CO)NC(=O)[C@H](CC(=O)O)NC(=O)[C@@H](CC(C)C)NC(=O)[C@@H](N)CSSC[C@@H](C(=O)O)NC1=O [C*dLDdSLC*]
ring closure, yield after HPLC (from H-Cys(Acm)-dLeu-Asp-dSer-Leu-Cys(Acm)-OH, disulfide bond, AgOTf/anisole/TFA, then DMSO/HCl, 50% DMSO-1N HCl, 2 steps): 62%

CC[C@H](C)[C@@H]1NC(=O)[C@@H](N)CSSC[C@@H](C(=O)O)NC(=O)[C@H](CC(C)C)NC(=O)[C@H](Cc2c[nH]cn2)NC(=O)[C@H](CC(=O)OC)NC1=O [C*ID(OMe)HLC*]
ring closure, yield after HPLC (from H-Cys(Acm)-Ile-Asp(OMe)-His-Leu-Cys(Acm)-OH, disulfide bond, AgOTf/anisole/TFA, then DMSO/HCl, 50% DMSO-1N HCl, 2 steps): 34%

CC[C@H](C)[C@@H]1NC(=O)[C@@H](N)CSSC[C@@H](C(=O)O)NC(=O)[C@H](CC(C)C)NC(=O)[C@H](c2ccccc2)NC(=O)[C@H](CC(=O)O)NC1=O [C*IDPhgLC*]
ring closure, yield after HPLC (from H-Cys(Acm)-Ile-Asp-Phg-Leu-Cys(Acm)-OH, disulfide bond, AgOTf/anisole/TFA, then DMSO/HCl, 50% DMSO-1N HCl, 2 steps): 48%
